# Legend:
# [1] = molecular target: T1, human KEAP1 (N-term, residues 321-609) (Homo sapiens, UniProt Q14145); assay: KEAP1 Kelch Fluorescence Polarization (FP) Assay; assay type: binding; conditions: inhibition of Kelch domain-NRF2 interaction; 2 nM FITC-labelled NRF2 peptide, 25 nM KEAP1, 1 h room temperature; compounds below 10 nM cannot be differentiated
# T1 construct: human KEAP1 (N-term, residues 321-609)
# Description: KEAP1 Kelch Fluorescence Polarization (FP) Assay Method
# Inhibition of the Kelch domain-NRF2 interaction was determined using a fluorescence polarization-based competition assay in a black 384-well microplate. Compounds were tested at a starting concentration of 10 μM serially diluted 1:3 to generate a 12-point dose response curve on the Biomek FX robot. Each well contained 2 nM FITC-labelled NRF2 peptide (FITC-LDEETGEFL-NH2) and 25 nM human KEAP1 (N-term, residues 321-609) enzyme in a final volume of 20 μL of assay buffer (50 mM Tris-HCl pH 8.0, 100 mM NaCl, 5 mM MgCl2, 0.005% Tween-20, 0.005% BSA, 0.5% DMSO) in the presence of varying concentrations of test compound. Unlabelled peptide (LDEETGEFL-NH2) at 50 μM (negative control) and 0.5% DMSO (positive control) was used to determine the assay window.
# After 1 h at room temperature, fluorescence polarization (excitation 470 nm/emission 530 nm) was measured using an Envision plate reader. IC50 values were determined by fitting the data to a four parameter logistic fit using XLfit or XE Runner within ActivityBase. The assay limit is such that compounds below 10 nM cannot be differentiated.
# [2] = tested on: NRF2 mediated gene NAD(P)H:quinone acceptor oxidoreductase 1 (NQO1) in BEAS-2B cells; assay: Beas2B NQO1 mRNA Cell Based Assay; parameters: species or system human; conditions: Homo sapiens; BEAS-2B cells, compound for 24 h; increase in NQO1 mRNA compared to vehicle (0.1% DMSO) control; read-out: EC50
# Description: Beas2B NQO1 mRNA Cell Based Assay
# The up regulation of the NRF2 mediated gene NAD(P)H:quinone acceptor oxidoreductase 1 (NQO1) was measured using the following assay method: BEAS-2B cells (ATCC CRL-9609) were plated in 96-well clear plates at 20,000 cells/well in 75 μL of cell culture media and incubated overnight (37° C., 5% CO2). On day 2, 25 μL of compound or controls were added to the cells for 24 h. On day 3, the medium was aspirated from the plate and the Cells-to-CT™ 1-Step TaqMan® Kit (Ambion A25603) was used to perform expression analysis directly from cultured cells without RNA purification according to the manufacturer's instructions.
# Briefly, cells were washed with ice cold PBS and 22.5 μL of room-temperature DNase/Lysis solution was added to the cells and incubated at room temperature for 5 minutes. To stop the reaction, 2.25 μL of stop solution was added to the cell lysate. The samples were diluted 1:5 using nuclease free water and 2.5 μL transferred into the PCR plate. Real-time PCR was performed using the C-1000 Thermal Cycler (Bio-Rad) using human beta actin as the internal control. The cDNA was amplified with a specific primer for NQO1 using the 1-step RT-PCR master mix (Ambion Cells-to-CTTM 1-Step TaqMan® Kit A25603). The primers/probes sets that were used for amplification of cDNA were obtained from TaqMan Gene Expression Assays (Applied Biosystems). The comparative CT (ΔΔCT) relative quantification method was used to calculate the relative mRNA level of the target gene NQO1 as described in the Applied Biosystems Chemistry Guide. The data are expressed as an increase in target gene mRNA compared to vehicle (0.1% DMSO) control and the EC50 values were determined by fitting the data to a four parameter logistic fit using XLfit or XE Runner within ActivityBase.
# T1 sequence (Q14145 321-609): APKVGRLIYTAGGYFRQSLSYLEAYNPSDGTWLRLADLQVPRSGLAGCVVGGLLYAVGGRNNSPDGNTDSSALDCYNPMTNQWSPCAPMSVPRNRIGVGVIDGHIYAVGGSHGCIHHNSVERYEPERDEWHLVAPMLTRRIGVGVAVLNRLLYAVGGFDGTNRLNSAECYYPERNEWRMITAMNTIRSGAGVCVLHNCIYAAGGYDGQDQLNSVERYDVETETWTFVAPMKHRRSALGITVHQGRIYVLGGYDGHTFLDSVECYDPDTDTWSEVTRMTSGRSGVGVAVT
Compound,IC50 [1] [nM],EC50 [2] [nM]
"CNC(=O)C1CCCC1C(=O)N1CCc2c(Cl)ccc(OCc3nnn(C)c3C(F)F)c2[C@H]1CN1CCCC1=O (single isomer, unassigned) [Example 65]",18,1860
"CNC(=O)C1OCCC1C(=O)N1CCc2c(Cl)ccc(OCc3nnn(C)c3C(F)F)c2[C@H]1CN1CCCC1=O (single isomer, unassigned) [Example 82]",4070,1740
"CNC(=O)[C@@]1(C)CCC[C@H]1C(=O)N1CCc2c(Cl)ccc(OCc3nnn(C)c3C(F)F)c2[C@H]1CN1CCC(C)C1=O (single isomer, unassigned) [Example 95]",23,565
"CNC(=O)[C@@]1(C)CCCC[C@H]1C(=O)N1CCc2c(Cl)ccc(OCc3nnn(C)c3C(F)F)c2[C@H]1CN1CCC(C)C1=O (single isomer, unassigned) [Example 96]",37,3190
"NC(=O)[C@H]1CCCC[C@H]1C(=O)N1CCc2cccc(OCCCC(=O)N3CCCC3)c2[C@H]1CN1C(=O)c2ccccc2C1=O [Example 1, (1S,2R)-2-((S)-1-((1 ,3-dioxoisoindolin-2-yl)methyl)-8-(4-oxo-4-(pyrrolidin-1-yl)butoxy)-1,2,3,4-tetrahydroisoquinoline-2-carbonyl)cyclohexane-1-carboxamide]",901,2030
"CCNC(=O)[C@H]1CCCC[C@H]1C(=O)N1CCc2cccc(OCCNC(=O)c3cc(C)on3)c2[C@H]1CN1C(=O)c2ccccc2C1=O [Example 6, N-(2-(((S)-1-((1,3-dioxoisoindolin-2-yl)-methyl)-2((1R,2S)-2-(ethylcarbamoyl)cyclohexane-1-carbonyl)-1,2,3,4-tetrahydroisoguinolin-8-yl)oxy)ethyl)-5-methylisoxazole-3-carboxamide]",196,2360
"CNC(=O)[C@H]1CCCC[C@H]1C(=O)N1CCc2cccc(O[C@H]3CCN(C(=O)c4cncs4)C3)c2[C@H]1CN1C(=O)c2ccccc2C1=O [Example 17, (1S,2R)-2-((S)-1-((1,3-dioxoisoindolin-2-yl)methyl)-8-(((S)-1-(thiazole-5-carbonyl)pyrrolidin-3-yl)oxy)-1,2,3,4-tetrahydroisoquinoline-2-carbonyl)-N-methylcyclohexane-1-carboxamide]",28,3070
"CNC(=O)[C@H]1CCCC[C@H]1C(=O)N1CCc2cccc(O[C@H]3CCN(C(=O)c4cc(C)on4)C3)c2[C@H]1CN1C(=O)c2ccccc2C1=O [Example 20, (1S,2R)-2-((S)-1-((1,3-dioxoisoindolin-2-yl)methyl)-8-(((S)-1-(5-methylisoxazole-3-carbonyl)pyrrolidin-3-yl)oxy)-1,2,3,4-tetrahydroisoquinoline-2-carbonyl)-N-methylcyclohexane-1-carboxamide]",29,> 500
"O=C(NCC(F)(F)CO)[C@H]1CCCC[C@H]1C(=O)N1CCc2cccc(O[C@H]3CCN(C(=O)c4cncs4)C3)c2[C@H]1CN1C(=O)c2ccccc2C1=O [Example 34, (1S,2R)-N-(2,2-difluoro-3-hydroxypropyl)-2-((S)-1-((1,3-dioxoisoindolin-2-yl)methyl)-8-(((S)-1-(thiazole-5-carbonyl)pyrrolidin-3-yl)oxy)-1,2,3,4-tetrahydroisoquinoline-2-carbonyl)cyclohexane-1-carboxamide]",36,193
"CCNC(=O)[C@H]1CCCC[C@H]1C(=O)N1CCc2cccc(O[C@H]3CCN(C(=O)c4cncs4)C3)c2[C@H]1CN1C(=O)c2ccccc2C1=O [Example 42, (1S,2R)-2-((S)-1-((1,3-dioxoisoindolin-2-yl)methyl)-8-(((S)-1-(thiazole-5-carbonyl)pyrrolidin-3-yl)oxy)-1,2,3,4-tetrahydroisoquinoline-2-carbonyl)-N-ethylcyclohexane-1-carboxamide]",53,580
"CNC(=O)[C@H]1CCCC[C@H]1C(=O)N1CCc2cccc(OCCCC(=O)O)c2[C@H]1CN1C(=O)c2ccccc2C1=O [Example 46, 4-(((S)-1-((1,3-dioxoisoindolin-2-yl)methyl)-24(1 R,2S)-2-(methylcarbamoyncyclohexane-1-carbonyl)-1,2,3,4-tetrahydroisoquinolin-8-yl)oxy)butanoic acid]",83,–
"CCC(=O)NC[C@@H]1c2c(cccc2O[C@H]2CCN(C(=O)c3cncs3)C2)CCN1C(=O)[C@@H]1CCCC[C@@H]1C(=O)NC [Example 47, (1S,2R)-N-methyl-2-((S)-1-(propionamidomethyl)-8-(((S)-1-(thiazole-5-carbonyl)pyrrolidin-3-yl)oxy)-1,2,3,4-tetrahydroisoquinoline-2-carbonyl)cyclohexane-1-carboxamide]",5330,–
CNC(=O)[C@H]1CCCCN1C(=O)N1CCc2cccc(O[C@H]3CCN(C(=O)c4cncs4)C3)c2[C@H]1CN1C(=O)c2ccccc2C1=O [Example 48],728,–
"CNC(=O)[C@H]1CCCC[C@H]1C(=O)N1CCc2cccc(OCc3cnn(C)c3)c2[C@H]1CN1C(=O)c2ccccc2C1=O [Example 49, (1S,2R)-2-((S)-1-((1,3-dioxoisoindolin-2-yl)methyl)-8-((1-methyl-1H-pyrazol-4-yl)methoxy)-1,2,3,4-tetrahydroisoquinoline-2-carbonyl)-N-methylcyclohexane-1-carboxamide]",1800,–
"CNC(=O)[C@H]1CCCC[C@H]1C(=O)N1CCc2c(Br)ccc(O[C@H]3CCN(C(C)=O)C3)c2[C@H]1CN1C(=O)c2ccccc2C1=O [Example 50, (1S,2R)-2-((S)-8-(((S)-1-acetylpyrrolidin-3-yl)oxy)-5-bromo-1-((1,3-dioxoisoindolin-2-yl)methyl)-1,2,3,4-tetrahydroisoquinoline-2-carbonyl)-N-methylcyclohexane-1-carboxamide]",72,–
"COC(=O)N1CCC[C@H]1C(=O)N1CCc2cccc(O[C@H]3CCN(C(=O)c4cncs4)C3)c2[C@H]1CN1C(=O)c2ccccc2C1=O [Example 51, methyl (S)-2-((S)-1-((1,3-dioxoisoindolin-2-yl)methyl)-8-(((S)-1-(thiazole-5-carbonyl)pyrrolidin-3-yl)oxy)-1,2,3,4-tetrahydroisoquinoline-2-carbonyl)pyrrolidine-1-carboxylate]",1700,–
"CNC(=O)[C@H]1CCCC[C@H]1C(=O)N1CCc2c(Cl)ccc(OCc3noc4ccccc34)c2[C@H]1CN1CCCC1=O [Example 52, (1S,2R)-2-((S)-8-(benzo[d]isoxazol-3-ylmethoxy)-5-chloro-1-((2-oxopyrrolidin-1-yl)methyl)-1,2,3,4-tetrahydroisoquinoline-2-carbonyl)-N-methylcyclohexane-1-carboxamide]",38,285
"CCNC(=O)[C@H]1CCCC[C@H]1C(=O)N1CCc2c(Cl)ccc(OCc3noc4ccccc34)c2[C@H]1CN1CCCC1=O [Example 53, (1S,2R)-2-((S)-8-(benzo[d]isoxazol-3-ylmethoxy)-5-chloro-1-((2-oxopyrrolidin-1-yl)methyl)-1,2,3,4-tetrahydroisoquinoline-2-carbonyl)-N-ethylcyclohexane-1-carboxamide]",47,189
"CNC(=O)[C@H](C)[C@@H](C)C(=O)N1CCc2c(Cl)ccc(OCc3noc(C(C)C)n3)c2[C@H]1CN1CCCC1=O [Example 59, (2R,3R)-4-((S)-5-chloro-8-((5-isopropyl-1,2,4-oxadiazol-3-yl)methoxy)-1-((2-oxopyrrolidin-1-yl)methyl)-3,4-dihydroisoquinolin-2(1H)-yl)-N,2,3-trimethyl-4-oxobutanamide]",533,–

# Reference: patent US20230159511A1, “TETRAHYDROISOQUINOLINE COMPOUNDS AS NRF2 ACTIVATORS” (C4X Discovery Limited, priority 2020, published 2023)
